From patent US10905744B2, “Pharmaceutical formulations for the oral delivery of peptide drugs” (Cyprumed GmbH, priority 2015, dated 2021) come the findings set out here.

A short description of data set [1]: Compatibility of absorption enhancers with trace elements: dissolution in aqueous medium, visual examination (Example 1). The format is physicochemical. The procedure: Solid dry powder mixtures of desmopressin acetate, zinc sulfate or iron(III) chloride, and different absorption enhancers were prepared and dissolved in 2 ml aqua purificata.
Another data set has as its target chymotrypsin (Bos taurus, UniProt P00766). Description: Chymotrypsin inhibition, BTPNA substrate, absorbance at 405 nm (Examples 9, 13-19, 23, 24, 27, 30, 31).
Data set [2] can be described thus: GLP-1 peptide formulations with SNAC and trace elements: dissolution in aqua purificata, visual (Example 4). The class given is physicochemical. The settings on record: liraglutide 1.8 mg/ml, SNAC 20 mg, trace element 2 mg, disodium phosphate dihydrate, 2 ml aqua purificata. On the procedure:
Compositions comprising a GLP-1 peptide, a complexing agent (disodium phosphate dihydrate), the absorption enhancer N-(8-[2-hydroxybenzoyl]amino)caprylic acid (SNAC) and various trace elements or metal salts were prepared and dissolved in 2 ml of aqua purificata and examined visually.

The target of the next data set is T1, trypsin (Bos taurus, UniProt P00760).
T1 construct: gene PRSS1
T1 sequence (P00760 24-246): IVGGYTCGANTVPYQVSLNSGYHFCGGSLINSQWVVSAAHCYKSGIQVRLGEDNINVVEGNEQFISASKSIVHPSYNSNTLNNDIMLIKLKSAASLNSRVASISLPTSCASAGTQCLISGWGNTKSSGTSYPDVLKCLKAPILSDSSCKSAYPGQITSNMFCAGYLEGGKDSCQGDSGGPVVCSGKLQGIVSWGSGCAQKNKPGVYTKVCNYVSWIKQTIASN
Description: Trypsin inhibition, BAPNA substrate, absorbance at 405 nm (Examples 10-12, 20-22, 25, 26, 28, 29, 33). The format is biochemical. On the procedure: 100 mg/ml copper gluconate in 50 mM TRIS pH 7; pH was adjusted to pH 7; stock solution was diluted to the following concentrations: 50 mg/ml, 25 mg/ml, 12.5 mg/ml, 5 mg/ml, 6.25 mg/ml, 3.125 mg/ml, 2.5 mg/ml, 1.25 mg/ml, 0.625 mg/ml, 0.313 mg/ml, 0.156 mg/ml and 0.078 mg/ml
0.5 mg/mL Benzoyl-Arginine p-nitroanilide (BAPNA)
100 μl 50 mM TRIS pH 7+50 μL Trypsin Stock+50 μL BAPNA Stock
100 μl Copper solution (according to the above described dilutions)+50 μL Trypsin Stock+50 μL BAPNA Stock
Absorption was measured after 15 minutes at 405 nm.
Values were corrected (subtraction of blank).
100 mg/ml Zinc bisglycinate in 50 mM TRIS pH 7; pH was adjusted to pH 7; stock solution was diluted to the following concentrations: 50 mg/ml and 25 mg/ml
100 μl Zinc solution (according to the above described dilutions)+50 μL Trypsin Stock+50 μL BAPNA Stock
10 mg/ml iron gluconate in 50 mM TRIS pH 7; pH was adjusted to pH 7; stock solution was diluted to the following concentrations: 5 mg/ml, 2.5 mg/ml, 1.25 mg/ml and 0.625 mg/ml
100 μl Iron solution (according to the above described dilutions)+50 μL Trypsin Stock+50 μL BAPNA Stock
Absorption was measured directly at 405 nm.
Benzoyl-Arginine p-nitroanilide (BAPNA): 0.5 mg/ml in 50 mM TRIS pH 7 (centrifuged and supernatant used as stock solution)
Trypsin: […] in 50 mM TRIS pH 7
1 mg/mL iron gluconate in 10 mM TRIS pH 7 (iron content=12%), 0.12 mg/ml iron
12 mg/mL copper lysinate in 10 mM TRIS pH 7 (copper content=3%), 0.12 mg/ml copper
100 μl of the respective salt solution+50 μL Trypsin Stock+50 μL BAPNA Stock
Experiments were carried out at pH 7, 50 mM TRIS.
0.025 mg/ml Trypsin, 0.125 mg/mL Benzoyl-Arginine p-nitroanilide (BAPNA.) Lauryl glutamate:
0.25 mg/ml; copper content (as copper(II)gluconate): 0.035 mg/ml.
Adsorption measurement at 405 nm
0.025 mg/ml Trypsin, 0.125 mg/mL Benzoyl-Arginine p-nitroanilide (BAPNA). lauryl-glutamate:
Absorption measurement at 405 nm
0.025 mg/ml Trypsin, 0.125 mg/mL Benzoyl-Arginine p-nitroanilide (BAPNA). Capryl-glucoside:
Copper sulfate stock solution: 1 mg/ml of copper sulfate was dissolved in 50 mM TRIS pH 7. Copper tartrate stock solution: 1 mg/ml of copper tartrate was dispersed in 50 mM TRIS pH 7 and moderately stirred for 5 minutes. The suspension was then centrifuged at 3′000 rpm for 10 minutes, to separate the insoluble salt. The supernatant was used as stock solution for the experiments.
Zinc orotate stock solution: 1 mg/ml of zinc orotate was dispersed in 50 mM TRIS pH 7 and moderately stirred for 5 minutes. The suspension was then centrifuged at 3′000 rpm for 10 minutes, to separate the insoluble salt. The supernatant was used as stock solution for the experiments.
100 μL of the respective salt solution stock+50 μL Trypsin Stock+50 μL BAPNA Stock
Control: 100 μL of 50 mM TRIS pH 7+50 μL Trypsin Stock+50 μL BAPNA Stock
Final concentrations of protease and substrate were 0.025 mg/ml Trypsin, 0.125 mg/mL
50 μl manganese sulfate+50 μl copper gluconate+50 μL Trypsin Stock+50 μL BAPNA Stock
Absorption measurement at 405 nm; final pH in all solutions was monitored to be pH 7.
3 mg/ml SiO2—suspended in 50 mM TRIS pH 7 and centrifuged; supernatant was used for experiments.
50 μl SiO2+50 μl 50 mM TRIS pH 7+50 μL Trypsin Stock+50 μL BAPNA Stock
50 μl copper gluconate+50 μl SiO2+50 μL Trypsin Stock+50 μL BAPNA Stock
50 μl iron gluconate+50 μl SiO2+50 μL Trypsin Stock+50 μL BAPNA Stock
120 μl 50 mM TRIS pH 7+50 μL Trypsin Stock+50 μL BAPNA Stock
80 μl copper gluconate+40 μl 50 mM TRIS pH 7+50 μL Trypsin Stock+50 μL BAPNA Stock
40 μl copper gluconate+80 μl 50 mM TRIS pH 7+50 μL Trypsin Stock+50 μL BAPNA Stock
80 μl iron gluconate+40 μl 50 mM TRIS pH 7+50 μL Trypsin Stock+50 μL BAPNA Stock
40 μl iron gluconate+80 μl 50 mM TRIS pH 7+50 μL Trypsin Stock+50 μL BAPNA Stock
80 μl iron gluconate+40 μl copper gluconate+50 μL Trypsin Stock+50 μL BAPNA Stock

The mark [3] stands for this setting: desmopressin acetate + FeCl3 5 mg/ml + absorption enhancer 10 mg/ml in 2 ml aqua purificata.
Setting [4] is: desmopressin acetate + ZnSO4 5 mg/ml + absorption enhancer 10 mg/ml in 2 ml aqua purificata.
Where [5] appears, read: Example 16, 0 minutes, metal ion 0.015 mg/ml ([…]), 10 mM TRIS pH 7.
Setting [6] is: Example 26, 1 mg/ml stocks (supernatant for copper tartrate and zinc orotate), pH 7, 50 mM TRIS, FIG. 17.

Description for chymotrypsin: CuSO4.5H2O dilutions in 10 mM TRIS buffer pH 7 to 10 mM, 5 mM, 2.5 mM 1.25 mM Benzoyl-Tyrosine p-nitroanilide (BTPNA): 0.5 mg/mL BTPNA in Acetone
Study: • (1) 100 μl buffer (10 mM TRIS, pH=7)+50 μl Chymotrypsin Stock+50 μl BTPNA • (2) 80 μl buffer (10 mM TRIS, pH=7)+20 μl CuSO4 stock (10 mM)+50 μl Chymotrypsin Stock+50 μl BTPNA • (3) 80 μl buffer (10 mM TRIS, pH=7)+20 μl CuSO4 dilut. (5 mM)+50 μl Chymotrypsin Stock+50 μl BTPNA • (4) 80 μl buffer (10 mM TRIS, pH=7)+20 μl CuSO4 stock (2.5 mM)+50 μl Chymotrypsin Stock+50 μl BTPNA • (5) 80 μl buffer (10 mM TRIS, pH=7)+20 μl CuSO4 dilut. (1.25 mM)+50 μl Chymotrypsin Stock+50 μl BTPNA
Final copper concentrations: 1 mM, 0.5 mM, 0.25 mM, 0.125 mM.
10 mM CuSO4 and Copper gluconate stock solution were diluted 1:1 with 10 mM TRIS buffer pH 7
Study: • (1) 100 μl buffer (10 mM TRIS, pH=7)+50 μl Chymotrypsin Stock+50 μl BTPNA • (2) 80 μl buffer (10 mM TRIS, pH=7)+20 μl CuSO4 dil. (5 mM)+50 μl Chymotrypsin Stock+50 μl BTPNA • (3) 80 μl buffer (10 mM TRIS, pH=7)+20 μl Copper gluconate dilut. (5 mM)+50 μl Chymotrypsin Stock+50 μl BTPNA • (4) 100 μl Cu-bisglycinate stock (0.5 mM)+50 μl Chymotrypsin Stock+50 μl BTPNA
10 mM CuSO4 stock solution was diluted 1:1 with 10 mM TRIS Puffer pH 7
Study: • (1) 30 μl buffer (10 mM TRIS, pH=7)+20 μl CuSO4 dil. (5 mM)+100 μl Chymotrypsin Stock: 30 min. incubation, then addition of 50 μl BTPNA • (2) 30 μl buffer (10 mM TRIS, pH=7)+100 μl Chymotrypsin Stock: 30 min. incubation, then addition of 20 μl CuSO4 dil. (5 mM)+50 μl BTPNA
Final copper concentration: 0.5 mM
Iron(II)-bisglycinate solution containing 1.86 mM of iron in 10 mM TRIS buffer pH 7 was prepared
Cu(II)-gluconate solution containing 2.0 mM of copper in 10 mM TRIS buffer pH 7 was prepared
Study: • (1) 100 μl buffer (10 mM TRIS, pH=7)+50 μl Chymotrypsin Stock+50 μl BTPNA • (2) 100 μl iron(II)-bisglycinate+50 μl Chymotrypsin Stock+50 μl BTPNA • (3) 100 μl copper(II)-gluconate+50 μl Chymotrypsin Stock+50 μl BTPNA
Values were corrected (subtraction of blank). Inhibition was calculated by setting the absorption value of (1) at each time-point as 100%.
Iron(II)-bisglycinate solution containing 0.46 mM of iron in 10 mM TRIS buffer pH 7 was prepared
Cu(II)- bisglycinate solution containing 0.46 mM of copper in 10 mM TRIS buffer pH 7 was prepared
Study: • (1) 100 μl buffer (10 mM TRIS, pH=7)+50 μl Chymotrypsin Stock+50 μl BTPNA • (2) 100 μl iron(II)-bisglycinate+50 μl Chymotrypsin Stock+50 μl BTPNA • (3) 100 μl copper(II)-bisglycinate+50 μl Chymotrypsin Stock+50 μl BTPNA
Values were corrected (subtraction of blank). Inhibition (%) was calculated by setting the absorption value of (1) at each time-point as 100% degradation.
Values were corrected (subtraction of blank). pH was confirmed to be pH 7 after the experiment.
0.025 mg/ml Chymotrypsin, 0.05 mg/mL Benzoyl-Tyrosine p-nitroanilide (BTPNA). Lauryl glutamate: 0.25 mg/ml; copper (as copper gluconate): 0.035 mg/ml.
0.025 mg/ml Chymotrypsin, 0.05 mg/mL Benzoyl-Tyrosine p-nitroanilide (BTPNA). Lauryl glutamate: 0.25 mg/ml; iron (as iron gluconate): 0.03 mg/ml.
100 μl 50 mM TRIS pH 7+50 μL Chymotrypsin Stock+50 μL BTPNA Stock
50 μl Beta-cyclodextrin+50 μl 50 mM TRIS pH 7+50 μL Chymotrypsin Stock+50 μL BTPNA Stock
50 μl copper gluconate+50 μl 50 mM TRIS pH 7+50 μL Chymotrypsin Stock+50 μL BTPNA Stock
50 μl copper gluconate+50 μl Beta-cyclodextrin+50 μL Chymotrypsin Stock+50 μL BTPNA Stock
50 μl copper gluconate+50 μl trisodium phosphate+50 μL Chymotrypsin Stock+50 μL BTPNA Stock
50 μl iron gluconate+50 μl trisodium phosphate+50 μL Chymotrypsin Stock+50 μL BTPNA Stock
Experiments were carried out at pH 7 in 50 mM TRIS buffer.

`C[C@H](CCC(=O)O)[C@H]1CC[C@H]2[C@@H]3[C@H](O)C[C@@H]4C[C@H](O)CC[C@]4(C)[C@H]3C[C@H](O)[C@]12C` [Cholic acid]: the “Dissolution in aqueous medium (2 ml)” value in data set [1] (setting [3]) and in data set [1] (setting [4]) was “Precipitation” in each case.
Consider `O=C(O)CC(O)(CC(=O)O)C(=O)O` [Citric acid], for which, in data set [1] (setting [4]), the “Dissolution in aqueous medium (2 ml)” value was “Clear solution”.
On to `NCC(=O)[O-].NCC(=O)[O-].[Cu+2]` [Copper-bisglycinate], for which the Inhibition % at chymotrypsin (setting [5]) is given as 0%.
Regarding `O=C(O)CN(CCN(CC(=O)O)CC(=O)O)CC(=O)O` [EDTA], the chymotrypsin inhibition entry on chymotrypsin (Example 18, stocks: copper gluconate 10 mM, EDTA 5 mM, sodium caprylate 4 mg/ml, pH 7, FIG. 9) is “can inhibit chymotrypsin”; on chymotrypsin (Example 31, stocks […] copper(II)gluconate, 1.25 mM EDTA, pH 7, 10 mM TRIS, FIG. 22), “can be inhibited”. Besides, the “effect on chymotrypsin inhibition” value on chymotrypsin (Example 19, EDTA added to a solution of copper gluconate, Tween 20 and sodium caprylate, FIG. 10) is listed as “positive effect on chymotrypsin inhibition”.
Turning to `[Cl][Fe]([Cl])[Cl]` [Fe(III)chlorid, iron(III) chloride], the “Dissolution in aqua purificata” value in data set [2] is on record as “precipitation”.
`NCC(=O)[O-].NCC(=O)[O-].[Fe+2]` [Iron bisglycinate]: in data set [2], the “Dissolution in aqua purificata” value was “Clear brownish solution”. The Inhibition % on chymotrypsin (Example 15, 0 minutes, metal ion Fe 0.06 mg/ml (0.92 mM), Cu 0.065 mg/ml (1.0 mM), 10 mM TRIS pH 7) came to 0%; on chymotrypsin (Example 15, 15 minutes, metal ion Fe 0.92 mM, Cu 1.0 mM) it was 69%; on chymotrypsin (Example 15, 30 minutes, metal ion Fe 0.92 mM, Cu 1.0 mM), 62%; at chymotrypsin (Example 15, 45 minutes, metal ion Fe 0.92 mM, Cu 1.0 mM), 56%; at chymotrypsin (Example 15, 60 minutes, metal ion Fe 0.92 mM, Cu 1.0 mM), 52%; on chymotrypsin (setting [5]) it was 0%.
In the case of `CCCCCCCCCCCC(=O)OC(CC(=O)O)C[N+](C)(C)C.[Cl-]` (stereo not drawn) [Lauroyl carnitine HCl], the “Dissolution in aqueous medium (2 ml)” value in data set [1] (setting [3]) and in data set [1] (setting [4]) was “Clear solution” in each case.
As for `CCCCCCCCCC(=O)[O-].[Na+]` [Sodium caprate], the “Dissolution in aqueous medium (2 ml)” value in data set [1] (setting [3]) and in data set [1] (setting [4]) was “Precipitation” throughout.
Take `CCCCCCCC(=O)[O-].[Na+]` [Sodium caprylate]: the “Dissolution in aqueous medium (2 ml)” value in data set [1] (setting [3]) and in data set [1] (setting [4]) was “Precipitation” in each case.
In the case of `C[C@H](CCC(=O)[O-])[C@H]1CC[C@H]2[C@@H]3[C@H](O)C[C@@H]4C[C@H](O)CC[C@]4(C)[C@H]3C[C@H](O)[C@]12C.[Na+]` [Sodium cholate], the “Dissolution in aqueous medium (2 ml)” value in data set [1] (setting [3]) and in data set [1] (setting [4]) was “Precipitation” in each case.
For the molecule `CCCCCCCCCCCCOS(=O)(=O)[O-].[Na+]` [Sodium dodecyl sulfate], the “Dissolution in aqueous medium (2 ml)” value in data set [1] (setting [3]) and in data set [1] (setting [4]) was “Clear solution” throughout.
Regarding `CC(=O)[O-].CC(=O)[O-].[Zn+2]` [Zinc acetate], the “Dissolution in aqua purificata” value in data set [2] is listed as “precipitation”.
Take `[Cl-].[Cl-].[Zn+2]` [ZnCl2, zinc chloride]: in data set [2], the “Dissolution in aqua purificata” value is “precipitation”.
As to `O=S(=O)([O-])[O-].[Zn+2]` [ZnSO4, zinc sulfate], the “Dissolution in aqua purificata” value in data set [2] is “precipitation”.
Consider `O=C([O-])C(O)C(O)C(=O)[O-].[Cu+2]` (stereo not drawn) [copper tartrate], for which the trypsin inhibition result at trypsin (setting [6]) was “show trypsin inhibitory properties in vitro”.
`NCCCC[C@H](N)C(=O)O.NCCCC[C@H](N)C(=O)O.[Cu]` [copper(II)lysinate]: the trypsin inhibition result at trypsin (Example 20, solutions 1 mg/mL iron gluconate, 1 mg/mL copper gluconate, 12 mg/mL copper lysinate, FIG. 11) is recorded as “can be inhibited”.
On to `CCCCCCCCCCCCO[C@@H]1O[C@H](CO)[C@@H](O[C@H]2O[C@H](CO)[C@@H](O)[C@H](O)[C@H]2O)[C@H](O)[C@H]1O` [n-Dodecyl-b-D-maltoside], for which the “Dissolution in aqueous medium (2 ml)” value in data set [1] (setting [3]) and in data set [1] (setting [4]) was “Clear solution” in each case.
`CCCCCCCCO[C@@H]1O[C@H](CO)[C@@H](O)[C@H](O)[C@H]1O` [n-Octyl-b-D-glucopyranoside]: the “Dissolution in aqueous medium (2 ml)” value in data set [1] (setting [3]) and in data set [1] (setting [4]) was “Clear solution” throughout.
As to `NCC(=O)[O-].NCC(=O)[O-].[Zn+2]` [zinc bisglycinate], the inhibition of trypsin entry at trypsin (pH 7) was “inhibits the proteolytic enzyme trypsin in a dose dependent manner”.
In the case of Copper orotate, in data set [2], the “Dissolution in aqua purificata” value is on record as “Clear solution”.
The same measure, in the same setting: to Zinc carnosine belongs “Clear solution”.
As for Zinc orotate, the trypsin inhibition result on trypsin (setting [6]) is given as “show trypsin inhibitory properties in vitro”. The “Dissolution in aqua purificata” value in data set [2] is recorded as “Clear solution”.
In the case of Zinc picolinate, the “Dissolution in aqua purificata” value in data set [2] is on record as “Clear solution”.
In the case of lauryl-glutamate, the trypsin inhibition result was “can be inhibited” at trypsin (Example 21, lauryl glutamate […], copper […], pH 7, 50 mM TRIS, FIG. 12) and “can be inhibited” on trypsin (Example 22, lauryl-glutamate […], iron 0.03 mg/ml, pH 7, 50 mM TRIS, FIG. 13).
